In ChEMBL document CHEMBL1130093, “Synthesis and nicotinic acetylcholine receptor binding properties of exo-2-(2'-fluoro-5'-pyridinyl)-7-azabicyclo-[2.2.1]heptane: a new positron emission tomography ligand for nicotinic receptors” (J Med Chem, 1997):

Each compound was assayed against Neuronal acetylcholine receptor (Rattus norvegicus) (UniProt P04757+P09483+P12389+P12390+P12392+P43144+Q9JLB5+P12391+P43143+P20420+Q05941) (assay: Kapp value towards nicotinic acetylcholine receptor was obtained from three to four independent competition binding experiments using [3H]-NCEPB).
Type: protein-complex assay

Q: `Clc1ccc(C2CC3CC[C@H]2N3)cn1` (stereo partly drawn) was tested. Which K app did it give?
A: Its K app is 0.024 nM.

Q: With `CN1CCC[C@H]1c1cccnc1` as the compound, how does the K app read?
A: The K app was 6.2 nM.

Q: How did the K app turn out when `Fc1ccc([C@H]2CC3CCC2N3)cn1` (stereo partly drawn) was run?
A: Its K app is 0.02 nM.
